44 molecules from ChEMBL document CHEMBL1201862, “PubChem BioAssay data set” (2004) can be followed below.

What all share (test): NCI tumour cell line growth inhibition, 48 h
Assay [1] relates to Hs-578T.
The subject of assay [2] is MDA-N.
The subject of assay [3] is MDA-MB-231.
Assay [4] relates to BT-549.

Molecules are shown by their SMILES.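 Method: 48-hour compound exposure of cells in 96-well plates, five concentrations, linear interpolation of endpoints. The concentration for 50% growth inhibition is given as GI50.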 Active and inactive are the calls of the source. Cut-off read from the data, not from the text of the source: active = GI50 up to about 1.1 µM and inactive = higher. Starred links: 1 amine or outer side, 2 acyl side, 3 side chain; linkers in the order of their positions; H or OH if unused. Positions of bridges follow the written chain, without caps; N, C: chain ends. Non-standard residues stand in square brackets, D forms with d. Residues, ends and D or L forms follow the SMILES beside them. Chains are numbered I, II in the order given. Actinocin(9to1) = Cc1c2oc3c(C)ccc(C(=O)[*:1])c3nc-2c(C(=O)[*:2])c(N)c1=O; NMeV = CN[CH](C(=O)O)C(C)C; Sar = CNCC(=O)O Where only a bound is given, the exact number is not on record here.

On to `COc1cc(/C=C(\C#N)c2nc3ccccc3o2)ccc1O`, for which the GI50 in assay [1] was 23.1 µM (inactive); in assay [2], 23 µM (inactive); in assay [3], 21.8 µM (inactive); in assay [4] it was 16.1 µM (inactive).
Take `Cc1ccc(S(=O)(=O)N2CCCN(S(=O)(=O)c3ccc(C)cc3)CC2)cc1`: the GI50 in assay [1], in assay [2] and in assay [3] was > 100 µM (inactive) each time.
For the molecule `O=C1CCC(NC(=O)c2ccccc2)C(=O)N1` (stereo not drawn), the GI50 in assay [1], in assay [2], in assay [3] and in assay [4] was > 100 µM (inactive) throughout.
As to `COc1ccc2cc(C(=O)NCCCNC(=O)c3ccc4c(OC)c(OC)ccc4c3)ccc2c1OC`, the GI50 in assay [2] and in assay [3] was > 100 µM (inactive) each time.
Take `CCc1nc2cc3cccnc3c(Cl)c2[nH]c1=O`: the GI50 in assay [1] was > 100 µM (inactive); in assay [2], > 100 µM (inactive); in assay [3], > 100 µM (inactive); in assay [4], 65.9 µM (inactive).
On to `COC(=O)C1C(C(=O)OC)N(Cc2ccccc2)C(=O)N1Cc1ccccc1` (stereo not drawn), for which the GI50 in assay [1], in assay [2] and in assay [4] was > 100 µM (inactive) throughout.
For the molecule `N#Cc1c(N)sc2c1-c1ccccc1OC2`, the GI50 was 21.1 µM (inactive) in assay [2], 46.9 µM (inactive) in assay [3] and 41 µM (inactive) in assay [4].
As for `CN1C(C)(C)CC(=O)C(Br)C1(C)C` (stereo not drawn), the GI50 in assay [1], in assay [2] and in assay [4] was > 100 µM (inactive) throughout.
In the case of `O=C1c2ccccc2CC12Cc1cc3c(cc1C2)CCC3`, the GI50 in assay [1] is > 100 µM (inactive); in assay [2], 37.5 µM (inactive); in assay [3], > 100 µM (inactive).
Turning to `COC(O)C(=O)c1c2c(cc3c1CCC3)CCCC2` (stereo not drawn), the GI50 in assay [1] is 4.22 µM (inactive); in assay [2] it was 13 µM (inactive); in assay [3] it was 9.64 µM (inactive); in assay [4] it was 2.39 µM (inactive).
On to `c1cc2c(s1)-c1sccc1C21OCCO1`, for which the GI50 in assay [2] is > 100 µM (inactive); in assay [3], > 100 µM (inactive); in assay [4] it was 50.5 µM (inactive).
Take `Cc1nc2ccccc2n1Cc1nnc2n1N=C(c1ccccc1)CS2`: the GI50 in assay [1] was 38.5 µM (inactive); in assay [2], 32.3 µM (inactive); in assay [3], 20.6 µM (inactive); in assay [4] it was 32.1 µM (inactive).
For the molecule `NC12Oc3cc(O)cc(O)c3C1(c1ccc(Cl)cc1)c1c(O)cc(O)cc1O2` (stereo not drawn), the values for the GI50 in assay [1], in assay [2] and in assay [4] were 28.8 µM (inactive), 39.9 µM (inactive) and > 100 µM (inactive), respectively.
As to `COc1ccc2nc3c([N+](=O)[O-])ccc4c3c(c2c1)N=CN4CCCN(C)C`, the GI50 in assay [1] was 7.28 µM (inactive); in assay [2], 4.62 µM (inactive); in assay [3] it was 1.37 µM (inactive); in assay [4], 8.22 µM (inactive).
In the same order, the values of `COc1ccc(Nc2nc(N)c(C(=O)c3cccs3)s2)cc1` are 11.5 µM (inactive), 3.92 µM (inactive), 26.2 µM (inactive) and 23.3 µM (inactive).
The matching figures for `Oc1cc(Cl)cc2cccnc12`: 4.05 µM (inactive), 17.9 µM (inactive), 2.19 µM (inactive) and 3.89 µM (inactive).
Regarding `Cc1ccc(CN2CCN(Cc3ccc(C)o3)C(C)C2)o1` (stereo not drawn), the GI50 in assay [1], in assay [2], in assay [3] and in assay [4] was > 100 µM (inactive) in each case.
On to `O=c1[nH]c(=S)[nH]n1C(=S)n1[nH]c(=S)[nH]c1=O`, for which the GI50 in assay [1], in assay [2] and in assay [3] was > 100 µM (inactive) throughout.
For the molecule `CCOC(=O)/C=C/c1nc(C#N)c(N)o1`, the GI50 in assay [1], in assay [2] and in assay [3] was > 100 µM (inactive) throughout.
Turning to `COc1ccc(C2C=C(c3ccc(C)cc3)N(c3ccc(OC)cc3[N+](=O)[O-])C3C(=O)OC(=O)C23)c(OC)c1` (stereo not drawn), the GI50 was 22.5 µM (inactive) in assay [1], 53.2 µM (inactive) in assay [3] and 53.3 µM (inactive) in assay [4].
As for `Cc1cc(C)n(C(=O)C(C)Sc2nnc(SC(C)C(=O)n3nc(C)cc3C)s2)n1` (stereo not drawn), the GI50 in assay [1], in assay [2], in assay [3] and in assay [4] was > 100 µM (inactive) in each case.
For `O=C(NC1C(=O)NC(CCc2ccccc2)NC1=O)OCc1ccccc1` (stereo not drawn), in assay [3], the GI50 was > 100 µM (inactive).
Turning to `CN1CCN(c2ccc3c(c2)NCC(=O)N3)CC1`, the GI50 in assay [1], in assay [3] and in assay [4] was > 100 µM (inactive) throughout.
In the case of `C=C1C(=O)O[C@H]2C/C(C=O)=C\[C@H]3O[C@H]3/C(COC(=O)C(C)C)=C/CC12` (stereo partly drawn), the GI50 in assay [1] was 2.89 µM (inactive); in assay [2], 2.91 µM (inactive); in assay [3], 3.89 µM (inactive); in assay [4] it was 12.2 µM (inactive).
For `COc1c(C(=O)/C(=N/Nc2cccc(Cl)c2)C(C)=O)c(O)c(OC)c2occc12`, the figures for the GI50 in assay [1], in assay [2] and in assay [3] were 70 µM (inactive), > 100 µM (inactive) and 73.6 µM (inactive), respectively.
With `COCC1OC(OC2C3=C(C(C)C)CCC3(C)/C=C3\C(CCC3(O)COC)C(C)C2O)C(O)C2OC3OC12OC3(C)C1CO1` (stereo not drawn), the GI50 is 19.6 µM (inactive) in assay [1], 54.1 µM (inactive) in assay [2], 50.9 µM (inactive) in assay [3] and 16.6 µM (inactive) in assay [4].
Consider `C=C1CC(C)(COc2ccc3ccc(=O)oc3c2)OC1=O` (stereo not drawn), for which the GI50 was 4.91 µM (inactive) in assay [1], 0.951 µM (active) in assay [2], 8.28 µM (inactive) in assay [3] and 1.02 µM (active) in assay [4].
Turning to `CC(=O)O[C@H]1CC[C@H]2[C@@H]3CCC4=C/C(=N/OCCN(C)C)CC[C@]4(C)[C@H]3CC[C@]12C`, the GI50 in assay [1] was 13.5 µM (inactive); in assay [2], 3.65 µM (inactive); in assay [3] it was 20.2 µM (inactive); in assay [4], 12.8 µM (inactive).
Consider `CCOC(=O)Cn1nnc2cc(Nc3c(C)[n+]([O-])c4cc(F)c(OCC)cc4[n+]3[O-])ccc21`, for which the GI50 is 41.8 µM (inactive) in assay [1] and 27.1 µM (inactive) in assay [3].
On to `Cn1c(CO)ccc1-c1ccc(-c2ccc(CO)[se]2)[se]1`, for which the GI50 in assay [1] is > 100 µM (inactive); in assay [3] it was 21.2 µM (inactive); in assay [4] it was 11.1 µM (inactive).
`CC(C)CC(C(N)=O)C(=O)NC(Cc1ccccc1)NC(=O)CNC(=O)C(C)NC(=O)C(N)Cc1ccc(O)cc1` (stereo not drawn): the GI50 in assay [1], in assay [2], in assay [3] and in assay [4] was > 100 µM (inactive) throughout.
Turning to `C=C1C(=O)O[C@@]23C1CC[C@@H](C)C2CC[C@@]1(C)OC31` (stereo partly drawn), the GI50 in assay [1] was 16 µM (inactive); in assay [2] it was 5.09 µM (inactive); in assay [4], 7.71 µM (inactive).
Take `Cc1cc(N(CCC#N)CCC#N)ccc1C(/N=N/c1ccc(Cl)cc1)=N\NC(=O)c1ccccc1`: the GI50 is 17 µM (inactive) in assay [1], 5.21 µM (inactive) in assay [2], 34.6 µM (inactive) in assay [3] and 25.6 µM (inactive) in assay [4].
In the case of `CC(=O)OC(C)(C)CCC(=O)[C@](C)(O)[C@H]1[C@H](O)C[C@@]2(C)[C@@H]3CC=C4C(C)=C(OC5OC(CO)C(O)C(O)C5O)C(=O)C[C@@H]4[C@]3(C)C(=O)C[C@]12C` (stereo partly drawn), the GI50 in assay [2], in assay [3] and in assay [4] was > 100 µM (inactive) each time.
Turning to `CC(=O)c1ccc(NCN2C(=O)c3ccccc3C2=O)cc1`, the GI50 in assay [1], in assay [2], in assay [3] and in assay [4] was > 100 µM (inactive) in each case.
Take `CCOC(=O)C1C(=O)C=C(c2cc(C)ccc2O)CC1c1cccc(Cl)c1` (stereo not drawn): the GI50 was 21 µM (inactive) in assay [1], 6.04 µM (inactive) in assay [2], 23.9 µM (inactive) in assay [3] and 44.6 µM (inactive) in assay [4].
As for `COc1cc2c(cc1OCCCC(=O)Nc1cc(C(=O)Nc3cc(C(=O)Nc4cc(C(=O)NCCCN(C)C)n(C)n4)n(C)c3)n(C)c1)N=CC1CCCN1C2=O` (stereo not drawn), the GI50 in assay [1] was 22.1 µM (inactive); in assay [2] it was 20 µM (inactive); in assay [3], 34.5 µM (inactive); in assay [4], 22.1 µM (inactive).
Regarding `CC(=O)/C=C/C1=C(C)CCCC1(C)CC(C)C` (stereo not drawn), the GI50 in assay [1] is 32.7 µM (inactive); in assay [2] it was 28.9 µM (inactive); in assay [3] it was 70.8 µM (inactive).
For the molecule `CCCCC[C@H]1CCCCCCCCCC(=O)OC2C(O[C@@H]3OC(C)[C@H](OC(=O)[C@@H](C)CC)C(O[C@@H]4OC(C)[C@H](O)C(O)[C@@H]4O)[C@@H]3OC(=O)[C@H](C)CC)[C@H](OC3C(O)[C@@H](O)C(C)O[C@H]3O1)OC(CO)[C@H]2O` (stereo partly drawn), the GI50 in assay [1] was 16.4 µM (inactive); in assay [2], 17.4 µM (inactive); in assay [3], 16.8 µM (inactive).
On to `C=C1C(=O)O[C@H]2C1C[C@H](O)[C@@]1(C)OC1CC[C@@]1(C)O[C@H]21` (stereo partly drawn), for which the figures for the GI50 in assay [1] and in assay [4] were 37.3 µM (inactive) and 13.8 µM (inactive), respectively.
For `N#C/C(=C\c1cc(F)cc(F)c1)c1ccccn1`, the GI50 in assay [2] was 19.7 µM (inactive); in assay [4], 30.1 µM (inactive).
`NS(=O)(=O)c1ccc(-n2c(-c3cccs3)nc3ccc(I)cc3c2=O)cc1`: the GI50 was 33.3 µM (inactive) in assay [2] and 16.3 µM (inactive) in assay [4].
Regarding `COc1ccc(-c2oc3cc(OC(C)=O)cc(OC(C)=O)c3c(=O)c2OC)cc1`, the figures for the GI50 in assay [2] and in assay [3] were 12.7 µM (inactive) and 22 µM (inactive), respectively.
`Cc1c2oc3c(C)ccc(C(=O)NC4C(=O)NC(Cc5ccc(O)cc5)C(=O)N5CCCC5C(=O)N(C)CC(=O)N(C)C(C(C)C)C(=O)OC4C)c3nc-2c(C(=O)NC2C(=O)NC(Cc3ccc(O)cc3)C(=O)N3CCCC3C(=O)N(C)CC(=O)N(C)C(C(C)C)C(=O)OC2C)c(N)c1=O` (stereo not drawn) (I: TYP[Sar][NMeV] / II: TYP[Sar][NMeV]; ester I:1-I:C, II:1-II:C; linker I:N-II:N via Actinocin(9to1); configuration not given here): the results for the GI50 in assay [1], in assay [2] and in assay [3] were 16.6 µM (inactive), 0.535 µM (active) and 15.6 µM (inactive), respectively.
